The values that follow come from ChEMBL document CHEMBL5053535, “Design, synthesis and biological evaluation of novel aminopyrazole- and 7-azaindole-based Nek1 inhibitors and their effects on zebrafish kidney development” (Bioorg Med Chem Lett, 2021).

Values after ≈ are worked out from the molar mass of the structure shown.

In series [1] the target is T1, Serine/threonine-protein kinase Nek1 (Homo sapiens) (UniProt Q96PY6).
T1 sequence (whole entry): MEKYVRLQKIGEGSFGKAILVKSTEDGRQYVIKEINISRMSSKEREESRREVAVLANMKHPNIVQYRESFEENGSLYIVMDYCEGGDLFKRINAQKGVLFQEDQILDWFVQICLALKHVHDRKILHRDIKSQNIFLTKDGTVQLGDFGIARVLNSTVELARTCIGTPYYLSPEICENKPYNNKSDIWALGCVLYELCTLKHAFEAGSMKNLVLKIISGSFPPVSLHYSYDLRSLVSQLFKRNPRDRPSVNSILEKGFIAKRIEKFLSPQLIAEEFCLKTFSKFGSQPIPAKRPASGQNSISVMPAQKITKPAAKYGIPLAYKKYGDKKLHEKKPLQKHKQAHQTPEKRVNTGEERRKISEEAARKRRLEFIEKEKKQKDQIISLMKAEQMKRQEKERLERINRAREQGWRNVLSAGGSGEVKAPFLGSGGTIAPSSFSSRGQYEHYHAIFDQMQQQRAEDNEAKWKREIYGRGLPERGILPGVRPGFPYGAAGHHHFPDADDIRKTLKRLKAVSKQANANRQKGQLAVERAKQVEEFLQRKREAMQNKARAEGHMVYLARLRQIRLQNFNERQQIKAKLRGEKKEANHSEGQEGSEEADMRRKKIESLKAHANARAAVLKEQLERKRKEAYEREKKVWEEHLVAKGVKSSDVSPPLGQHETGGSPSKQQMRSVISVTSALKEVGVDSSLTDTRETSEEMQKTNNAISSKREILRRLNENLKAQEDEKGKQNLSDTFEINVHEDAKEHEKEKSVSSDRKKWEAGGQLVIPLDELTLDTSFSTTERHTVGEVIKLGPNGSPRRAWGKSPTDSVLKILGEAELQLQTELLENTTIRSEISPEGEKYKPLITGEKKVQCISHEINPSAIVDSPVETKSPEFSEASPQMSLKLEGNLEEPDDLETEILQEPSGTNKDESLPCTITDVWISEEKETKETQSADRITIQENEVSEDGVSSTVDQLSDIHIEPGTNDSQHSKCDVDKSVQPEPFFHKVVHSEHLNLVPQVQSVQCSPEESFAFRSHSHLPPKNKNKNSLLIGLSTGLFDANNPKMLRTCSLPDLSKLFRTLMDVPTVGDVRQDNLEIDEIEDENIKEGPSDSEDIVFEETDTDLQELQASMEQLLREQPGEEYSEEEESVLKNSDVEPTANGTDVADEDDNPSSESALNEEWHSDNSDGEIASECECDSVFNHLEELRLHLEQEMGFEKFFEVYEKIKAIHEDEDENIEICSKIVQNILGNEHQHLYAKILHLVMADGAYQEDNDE
Description: Inhibition of human NEK1 using myelin basic protein as substrate assessed as residual activity at 1 uM in presence of [gamma-33P]-ATP by radiometric hotspot kinase assay relative to control.

The target of series [2] is Cyclin-dependent kinase 2/cyclin E1 (Homo sapiens) (UniProt P24864+P24941). Description: Inhibition of human recombinant full length C-terminal His6 tagged CDK2/ N-terminal GST-tagged Cyclin E expressed in baculovirus infected Sf21 insect cells using histone H1 as substrate assessed as residual activity at 1 uM pretreated for 20 mins followed by [33P]-ATP addition measured after 120 mins by radiometric hotspot kinase assay relative to control. The settings on record: time 140.0 min.

Series [3] has as its target T2, Serine/threonine-protein kinase Nek5 (Homo sapiens) (UniProt Q6P3R8).
T2 sequence (whole entry): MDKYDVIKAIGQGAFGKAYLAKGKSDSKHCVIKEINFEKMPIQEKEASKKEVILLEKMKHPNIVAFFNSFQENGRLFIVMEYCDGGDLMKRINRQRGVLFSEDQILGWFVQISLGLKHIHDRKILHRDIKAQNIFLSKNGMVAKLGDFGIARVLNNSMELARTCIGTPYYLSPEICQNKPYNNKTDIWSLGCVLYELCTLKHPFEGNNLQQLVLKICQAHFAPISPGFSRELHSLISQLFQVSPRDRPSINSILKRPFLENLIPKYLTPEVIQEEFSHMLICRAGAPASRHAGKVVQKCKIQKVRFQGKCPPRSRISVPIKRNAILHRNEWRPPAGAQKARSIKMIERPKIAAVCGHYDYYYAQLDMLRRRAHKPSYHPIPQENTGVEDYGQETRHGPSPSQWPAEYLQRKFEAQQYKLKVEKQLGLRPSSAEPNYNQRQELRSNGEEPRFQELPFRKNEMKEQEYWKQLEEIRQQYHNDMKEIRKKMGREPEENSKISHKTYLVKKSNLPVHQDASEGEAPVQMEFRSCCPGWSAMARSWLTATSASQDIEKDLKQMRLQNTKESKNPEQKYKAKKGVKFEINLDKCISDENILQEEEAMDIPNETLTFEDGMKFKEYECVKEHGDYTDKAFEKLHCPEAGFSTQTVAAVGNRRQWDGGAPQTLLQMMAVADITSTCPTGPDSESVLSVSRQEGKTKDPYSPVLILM
Description: Inhibition of human recombinant NEK5 assessed as residual activity at 1 uM pretreated for 20 mins followed by [33P]-ATP addition measured after 120 mins by radiometric hotspot kinase assay relative to control. The settings on record: time 140.0 min.

Series [4] concerns the target Wee1-like protein kinase (Homo sapiens) (UniProt P30291). Description: Inhibition of human recombinant full length WEE1 expressed in insect cells using MBP as substrate assessed as residual activity at 1 uM pretreated for 20 mins followed by [33P]-ATP addition measured after 120 mins by radiometric hotspot kinase assay relative to control. Particulars: time 140.0 min.

A short description of series [5]: Solubility of the compound in E3 medium with 0.2% DMSO by DAD-HPLC based shake flask method. It counts as physicochemical.
The nature of series [6]: Solubility of the compound in DMEM with 1% DMSO by DAD-HPLC based shake flask method. It counts as physicochemical.
The nature of series [7]: Stability of the compound in DMEM measured after 48 hrs by DAD-HPLC method. Particulars: read-out: Stability. It counts as physicochemical.
The nature of series [8]: Permeability across apical to basolateral side in human Caco-2 cells at pH 6.5 at 1 uM. It counts as ADME, cell-based. The settings on record: Caco-2, pH 6.5, read-out: permeability.
Series [9] in a line: Permeability across basolateral to apical side in human Caco-2 cells at pH 7.4 at 1 uM. It counts as ADME, cell-based. Particulars: Caco-2, pH 7.4, read-out: permeability. A general note: Caco-2 monolayers are a common model of the intestinal barrier.
A short description of series [10]: Permeability across basolateral to apical side in human Caco-2 cells at pH 7.4 assessed as compound recovery at 1 uM. The settings on record: Caco-2, pH 7.4, read-out: Drug recovery. It counts as ADME, cell-based.
The species named for series [11] is Danio rerio. Description: Toxicity in zebra fish embryos assessed as phenotype changes at 0.01 to 2.5 uM measured after 96 hrs. Particulars: zebrafish, in vivo, dose 0.01-2.5 µM. It counts as organism-based.
Series [12] in a line: Toxicity in zebra fish embryos assessed as lethality at 1.5 uM measured after 96 hrs relative to control. It counts as organism-based, Danio rerio. Particulars: zebrafish, in vivo, read-out: Activity.
Series [13] is filed under the species Danio rerio. Description: Toxicity in wild type zebra fish model of polycystic kidney disease assessed as minor tubular volume expansion at 0.5 uM incubated for 48 hrs in presence of N-phenyl thiourea further treated with PT-yellow for 20 mins followed by dye washout and incubated in solution containing compound for 96 hrs by fluorescence imaging analysis. It counts as organism-based. The settings on record: zebrafish, in vivo.

Wee1-like protein kinase (Homo sapiens), sequence (P30291 whole entry, looked up): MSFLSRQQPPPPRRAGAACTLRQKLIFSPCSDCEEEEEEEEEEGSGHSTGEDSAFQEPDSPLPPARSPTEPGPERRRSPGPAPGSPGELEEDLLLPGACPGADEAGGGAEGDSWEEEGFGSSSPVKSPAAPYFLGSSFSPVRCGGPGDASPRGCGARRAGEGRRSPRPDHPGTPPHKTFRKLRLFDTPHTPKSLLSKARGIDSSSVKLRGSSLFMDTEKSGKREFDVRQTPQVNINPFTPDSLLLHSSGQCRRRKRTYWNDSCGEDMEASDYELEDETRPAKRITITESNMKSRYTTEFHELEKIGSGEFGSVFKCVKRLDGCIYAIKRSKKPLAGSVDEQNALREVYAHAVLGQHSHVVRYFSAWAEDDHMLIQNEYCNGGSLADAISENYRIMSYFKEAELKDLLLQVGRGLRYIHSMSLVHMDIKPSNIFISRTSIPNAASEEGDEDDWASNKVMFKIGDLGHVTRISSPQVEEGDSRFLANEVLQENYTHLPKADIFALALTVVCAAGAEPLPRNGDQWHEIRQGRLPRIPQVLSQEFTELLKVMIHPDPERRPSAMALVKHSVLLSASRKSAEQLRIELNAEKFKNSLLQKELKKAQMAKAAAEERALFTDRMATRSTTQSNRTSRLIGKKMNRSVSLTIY

Regarding `COC(=O)c1cccc(-c2cnc3[nH]cc(-c4cccnc4)c3c2)c1`, the Activity in series [1] was -0.6%; in [2], 1.6%; in series [3], 10.4%; in series [4], 82.1%; in the series filed under Danio rerio [11], “Non-Toxic”; in the series filed under Danio rerio [13], “Toxic”. In addition, the solubility in [5] was 1.9 µM (≈ 0.626 µg/mL); in [6] it was 4.3 µM (≈ 1.42 µg/mL). Also, the remaining at 48 h in [7] turned out to be 103%. For the same molecule, the Papp A→B at 1 µM in [8] came to 0.13 ×10⁻⁶ cm/s. In addition, the Papp B→A at 1 µM in [9] came to 0.04 ×10⁻⁶ cm/s. Moreover, in series [10], the recovery at 1 µM is 29.6%. The mortality at 96 h, 1.5 µM in [12] came to 100%.

By solubility is commonly meant the concentration that dissolves in the medium under given conditions. A high value points to much dissolved substance.
